Assay results as given in ChEMBL document CHEMBL1201862, “PubChem BioAssay data set” (2004).
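96-well plates; 48 h exposure; 5 concentrations. Endpoints by linear interpolation between flanking doses. Not reached: highest tested concentration assigned. GI50 marks 50% less growth.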 Activity calls are given as the source filed them. Rule as the data show it: active = GI50 up to about 1.1 µM and inactive = higher.

Columns and labels:
Assay in all cases: NCI anticancer screen, dose series, 48 h
[1] = test system: OVCAR-8
[2] = test system: MCF7
[3] = test system: CCRF-CEM
[4] = test system: U-251
[5] = test system: HCC 2998
[6] = test system: NCI-H23
[7] = test system: SN12C
[8] = test system: SK-MEL-2
[9] = test system: SR
[10] = test system: Hs-578T
[11] = test system: T47D
[12] = test system: HOP-92
[13] = test system: LOX IMVI
[14] = test system: NCI-H226
[15] = test system: UACC-257
[16] = test system: EKVX
[17] = test system: MDA-MB-435
[18] = test system: SNB-19
[19] = test system: SF-539
[20] = test system: DMS-114

Structure (SMILES)	GI50 [1]	GI50 [2]	GI50 [3]	GI50 [4]	GI50 [5]	GI50 [6]	GI50 [7]	GI50 [8]	GI50 [9]	GI50 [10]	GI50 [11]	GI50 [12]	GI50 [13]	GI50 [14]	GI50 [15]	GI50 [16]	GI50 [17]	GI50 [18]	GI50 [19]	GI50 [20]
CN(C)CCn1c(=O)c2ccc3c4c(nn3CCN(C)C)c3ccccc3n(c1=O)c24	< 0.01 µM (active)	0.188 µM (active)	0.178 µM (active)	0.196 µM (active)	0.129 µM (active)	0.449 µM (active)	0.148 µM (active)	0.423 µM (active)	< 0.127 µM (active)	0.526 µM (active)	0.524 µM (active)	1.87 µM (inactive)	0.214 µM (active)	0.506 µM (active)	1.12 µM (inactive)	< 0.0113 µM (active)	0.23 µM (active)	0.313 µM (active)	0.571 µM (active)	–
Cc1c(/C=N/NC(=O)c2cc(Br)cc(Br)c2O)c(=O)n(-c2ccccc2)n1C	27.5 µM (inactive)	–	23.3 µM (inactive)	69 µM (inactive)	> 100 µM (inactive)	77.3 µM (inactive)	69.7 µM (inactive)	> 100 µM (inactive)	–	–	–	30.1 µM (inactive)	6.53 µM (inactive)	90.6 µM (inactive)	35.3 µM (inactive)	> 100 µM (inactive)	–	> 100 µM (inactive)	47 µM (inactive)	38.5 µM (inactive)
COC1=CC(=O)C2C(C1=O)[C@@H]1c3ccccc3OC(C)(C)[C@H]21 (stereo partly drawn)	21.7 µM (inactive)	–	23.1 µM (inactive)	53.2 µM (inactive)	> 100 µM (inactive)	17.5 µM (inactive)	–	26.3 µM (inactive)	–	–	–	20.5 µM (inactive)	14.2 µM (inactive)	19.1 µM (inactive)	29.2 µM (inactive)	31.9 µM (inactive)	–	7.73 µM (inactive)	23.5 µM (inactive)	20.7 µM (inactive)
NC(=O)C(=Cc1ccc(CP(=O)(O)O)cc1)C(N)=O	> 100 µM (inactive)	–	–	> 100 µM (inactive)	> 100 µM (inactive)	> 100 µM (inactive)	> 100 µM (inactive)	> 100 µM (inactive)	–	–	–	> 100 µM (inactive)	> 100 µM (inactive)	–	> 100 µM (inactive)	> 100 µM (inactive)	–	> 100 µM (inactive)	> 100 µM (inactive)	> 100 µM (inactive)
COC(=O)C1(CCC(=O)N(C)c2ccccc2)NNC2C(=O)N(c3ccccc3)C(=O)C21 (stereo not drawn)	> 10 µM (inactive)	> 10 µM (inactive)	> 10 µM (inactive)	> 10 µM (inactive)	> 10 µM (inactive)	> 10 µM (inactive)	> 10 µM (inactive)	> 10 µM (inactive)	> 10 µM (inactive)	> 10 µM (inactive)	> 10 µM (inactive)	> 10 µM (inactive)	> 10 µM (inactive)	> 10 µM (inactive)	> 10 µM (inactive)	> 10 µM (inactive)	> 10 µM (inactive)	> 10 µM (inactive)	> 10 µM (inactive)	–
Cc1c(N2CCOCC2)nc2ccc(Cl)cc2c1-c1ccccc1	> 100 µM (inactive)	–	26.7 µM (inactive)	89.9 µM (inactive)	40.9 µM (inactive)	69.7 µM (inactive)	47.8 µM (inactive)	> 100 µM (inactive)	34.4 µM (inactive)	–	–	42.7 µM (inactive)	49.4 µM (inactive)	–	> 100 µM (inactive)	91.8 µM (inactive)	–	> 100 µM (inactive)	61.9 µM (inactive)	70.1 µM (inactive)
COC(=O)/C(C#N)=C(\N)C(Cl)(Cl)Cl	2.15 µM (inactive)	–	0.338 µM (active)	16.5 µM (inactive)	3.06 µM (inactive)	4.82 µM (inactive)	2.87 µM (inactive)	5.53 µM (inactive)	0.449 µM (active)	–	–	2.99 µM (inactive)	2.65 µM (inactive)	–	3.08 µM (inactive)	4.68 µM (inactive)	–	40.8 µM (inactive)	–	3.73 µM (inactive)
CC1OC(OC2CCCc3c(O)c4c(c(O)c32)C(=O)c2ccccc2C4=O)CC(N)C1O (stereo not drawn)	1.42 µM (inactive)	–	1.2 µM (inactive)	1.86 µM (inactive)	2.07 µM (inactive)	1.77 µM (inactive)	1.68 µM (inactive)	1.75 µM (inactive)	–	–	–	1.43 µM (inactive)	1.61 µM (inactive)	1.69 µM (inactive)	1.62 µM (inactive)	1.71 µM (inactive)	–	1.64 µM (inactive)	1.56 µM (inactive)	1.69 µM (inactive)
CCCOP1(=O)C=CC(Cl)=C(C)C1 (stereo not drawn)	21.1 µM (inactive)	–	11.9 µM (inactive)	40.1 µM (inactive)	> 63.1 µM (inactive)	30.8 µM (inactive)	69.5 µM (inactive)	23.9 µM (inactive)	–	–	–	33.1 µM (inactive)	32.3 µM (inactive)	–	26.9 µM (inactive)	> 51.5 µM (inactive)	–	> 70 µM (inactive)	> 46 µM (inactive)	25.4 µM (inactive)
CCCN1CN(C(C(=O)N[C@@H]2C(=O)N3C2SC(C)(C)C3C(=O)O)c2ccccc2)CSC1=S (stereo partly drawn)	> 100 µM (inactive)	–	95.9 µM (inactive)	> 100 µM (inactive)	–	> 100 µM (inactive)	> 100 µM (inactive)	> 100 µM (inactive)	–	–	–	> 100 µM (inactive)	50.9 µM (inactive)	–	> 100 µM (inactive)	> 100 µM (inactive)	–	> 100 µM (inactive)	> 100 µM (inactive)	54 µM (inactive)
COc1cc(C2c3cc4c(cc3OC(N3CCOCC3)C2C)OCO4)cc(OC)c1O (stereo not drawn)	14.2 µM (inactive)	5.35 µM (inactive)	3.14 µM (inactive)	7.52 µM (inactive)	10.5 µM (inactive)	24.8 µM (inactive)	13.7 µM (inactive)	6.9 µM (inactive)	3.82 µM (inactive)	3.18 µM (inactive)	9.04 µM (inactive)	12.8 µM (inactive)	6.7 µM (inactive)	22.6 µM (inactive)	17.8 µM (inactive)	36.2 µM (inactive)	2.1 µM (inactive)	22.3 µM (inactive)	5.66 µM (inactive)	–
CCSC1=CC(=O)c2nc3ccccc3c3ccnc1c23	2.57 µM (inactive)	1.88 µM (inactive)	2.44 µM (inactive)	3.33 µM (inactive)	8.89 µM (inactive)	2.64 µM (inactive)	2.64 µM (inactive)	1.91 µM (inactive)	2.7 µM (inactive)	3.14 µM (inactive)	11.2 µM (inactive)	11.4 µM (inactive)	4.51 µM (inactive)	10.6 µM (inactive)	1.95 µM (inactive)	2.58 µM (inactive)	1.77 µM (inactive)	42.2 µM (inactive)	5.43 µM (inactive)	–
CCOc1ccc(/C=C/C(=O)c2sc(NNC(C)=O)nc2C)cc1	> 100 µM (inactive)	–	> 100 µM (inactive)	> 100 µM (inactive)	> 100 µM (inactive)	> 100 µM (inactive)	> 100 µM (inactive)	> 100 µM (inactive)	–	–	–	> 100 µM (inactive)	> 100 µM (inactive)	–	> 100 µM (inactive)	85.1 µM (inactive)	–	> 100 µM (inactive)	> 100 µM (inactive)	> 100 µM (inactive)
COc1nc2nccc-2c2occn12	> 100 µM (inactive)	–	–	> 100 µM (inactive)	> 100 µM (inactive)	> 100 µM (inactive)	> 100 µM (inactive)	> 100 µM (inactive)	–	–	–	> 100 µM (inactive)	> 100 µM (inactive)	–	> 100 µM (inactive)	> 100 µM (inactive)	–	> 100 µM (inactive)	> 100 µM (inactive)	> 100 µM (inactive)
COc1ccc(C2(c3ccc(OC)cc3)OC(=O)c3cccc4cccc2c34)cc1	15.7 µM (inactive)	4.78 µM (inactive)	3.18 µM (inactive)	4.38 µM (inactive)	3.14 µM (inactive)	12.6 µM (inactive)	23.8 µM (inactive)	8 µM (inactive)	2.54 µM (inactive)	9.51 µM (inactive)	2.24 µM (inactive)	> 100 µM (inactive)	8.89 µM (inactive)	27.6 µM (inactive)	> 100 µM (inactive)	2.76 µM (inactive)	2.69 µM (inactive)	94 µM (inactive)	3.48 µM (inactive)	–
C=C1C(=O)O[C@@H]2C[C@@]3(C)CCC[C@H](C)C3=C[C@H]12 [HELENINE]	6.19 µM (inactive)	4.58 µM (inactive)	1.52 µM (inactive)	9.86 µM (inactive)	15.7 µM (inactive)	4.94 µM (inactive)	3.01 µM (inactive)	3.24 µM (inactive)	1.19 µM (inactive)	4.99 µM (inactive)	2.64 µM (inactive)	2.43 µM (inactive)	10.5 µM (inactive)	15.7 µM (inactive)	7.21 µM (inactive)	15 µM (inactive)	5.08 µM (inactive)	16.5 µM (inactive)	10.6 µM (inactive)	–
COc1ccc(/C=C/c2cc(OC)cc(=O)o2)cc1 [YANGONIN]	> 100 µM (inactive)	> 100 µM (inactive)	> 100 µM (inactive)	27.1 µM (inactive)	> 100 µM (inactive)	51.8 µM (inactive)	> 100 µM (inactive)	72.1 µM (inactive)	> 100 µM (inactive)	35.5 µM (inactive)	> 100 µM (inactive)	45.2 µM (inactive)	> 100 µM (inactive)	> 100 µM (inactive)	> 100 µM (inactive)	> 100 µM (inactive)	> 100 µM (inactive)	50.4 µM (inactive)	10.2 µM (inactive)	–
